The numbers were not newly measured in patent US9782416B2, “Pharmaceutical formulations of potassium ATP channel openers and uses thereof” (Essentialis, Inc., priority 2004, dated 2017), which cites them from elsewhere.

One series deals with Kir6.2/SUR1 channel (Rattus norvegicus, UniProt Q09429). Conditions: Dabrowski et al. 2002.
The target of a further series is T1, KATP channel (Homo sapiens, UniProt Q09428).
T1 construct: host or cells: patients with hyperinsulinism or pancreatic insulinoma (endogenous channel)
T1 sequence (Q09428 whole entry): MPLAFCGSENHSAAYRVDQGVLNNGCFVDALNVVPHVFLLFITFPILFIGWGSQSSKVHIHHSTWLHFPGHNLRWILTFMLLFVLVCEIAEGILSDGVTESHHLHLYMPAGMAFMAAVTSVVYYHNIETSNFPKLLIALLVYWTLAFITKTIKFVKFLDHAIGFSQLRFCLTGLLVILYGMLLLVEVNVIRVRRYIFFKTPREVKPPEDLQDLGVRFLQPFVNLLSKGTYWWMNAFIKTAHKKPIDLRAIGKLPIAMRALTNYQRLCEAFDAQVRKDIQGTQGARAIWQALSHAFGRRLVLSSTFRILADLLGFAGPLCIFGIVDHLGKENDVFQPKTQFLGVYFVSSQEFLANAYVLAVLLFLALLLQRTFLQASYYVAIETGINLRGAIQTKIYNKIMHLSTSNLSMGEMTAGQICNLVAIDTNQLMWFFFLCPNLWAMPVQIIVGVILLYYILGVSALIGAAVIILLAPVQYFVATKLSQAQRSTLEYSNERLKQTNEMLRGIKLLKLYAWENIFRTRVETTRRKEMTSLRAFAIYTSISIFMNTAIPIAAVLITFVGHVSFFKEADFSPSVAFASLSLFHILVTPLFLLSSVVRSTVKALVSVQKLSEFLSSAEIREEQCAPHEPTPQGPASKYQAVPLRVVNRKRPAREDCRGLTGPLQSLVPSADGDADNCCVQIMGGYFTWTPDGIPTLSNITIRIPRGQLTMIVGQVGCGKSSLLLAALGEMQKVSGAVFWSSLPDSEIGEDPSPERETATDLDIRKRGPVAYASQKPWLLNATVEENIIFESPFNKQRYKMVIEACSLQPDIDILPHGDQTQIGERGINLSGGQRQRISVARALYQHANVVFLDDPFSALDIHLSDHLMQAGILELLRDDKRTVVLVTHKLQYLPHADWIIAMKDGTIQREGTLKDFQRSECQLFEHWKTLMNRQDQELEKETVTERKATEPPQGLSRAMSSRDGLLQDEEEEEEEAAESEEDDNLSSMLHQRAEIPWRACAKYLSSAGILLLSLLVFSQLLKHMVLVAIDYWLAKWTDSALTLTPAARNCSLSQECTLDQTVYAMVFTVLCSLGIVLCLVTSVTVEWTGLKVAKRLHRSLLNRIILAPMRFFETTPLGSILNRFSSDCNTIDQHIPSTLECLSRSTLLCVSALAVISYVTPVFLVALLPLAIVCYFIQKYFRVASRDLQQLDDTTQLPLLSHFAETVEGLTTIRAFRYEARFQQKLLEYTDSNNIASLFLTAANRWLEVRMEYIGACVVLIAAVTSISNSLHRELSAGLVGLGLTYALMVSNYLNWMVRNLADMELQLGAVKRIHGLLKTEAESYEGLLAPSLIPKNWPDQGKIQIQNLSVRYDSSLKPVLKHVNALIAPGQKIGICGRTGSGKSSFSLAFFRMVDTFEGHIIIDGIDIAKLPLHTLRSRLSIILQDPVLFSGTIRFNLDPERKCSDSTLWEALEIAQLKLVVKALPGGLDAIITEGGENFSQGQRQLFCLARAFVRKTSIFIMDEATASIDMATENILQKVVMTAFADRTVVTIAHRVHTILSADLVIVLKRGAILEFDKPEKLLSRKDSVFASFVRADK
T1 sequence (Q14654 whole entry partner): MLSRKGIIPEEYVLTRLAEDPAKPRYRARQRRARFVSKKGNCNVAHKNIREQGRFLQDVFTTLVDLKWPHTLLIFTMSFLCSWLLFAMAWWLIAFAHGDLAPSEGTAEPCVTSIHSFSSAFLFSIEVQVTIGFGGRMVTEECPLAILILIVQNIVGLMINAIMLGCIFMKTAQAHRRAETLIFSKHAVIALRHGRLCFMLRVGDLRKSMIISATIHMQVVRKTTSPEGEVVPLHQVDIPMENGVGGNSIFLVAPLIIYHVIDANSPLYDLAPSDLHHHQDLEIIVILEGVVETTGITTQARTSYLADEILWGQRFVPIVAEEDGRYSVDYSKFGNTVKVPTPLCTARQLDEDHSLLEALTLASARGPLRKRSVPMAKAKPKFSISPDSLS
Conditions: patients with hyperinsulinism and patients with pancreatic insulinoma.

Chain of Kir6.2/SUR1 channel (Q09429 whole entry): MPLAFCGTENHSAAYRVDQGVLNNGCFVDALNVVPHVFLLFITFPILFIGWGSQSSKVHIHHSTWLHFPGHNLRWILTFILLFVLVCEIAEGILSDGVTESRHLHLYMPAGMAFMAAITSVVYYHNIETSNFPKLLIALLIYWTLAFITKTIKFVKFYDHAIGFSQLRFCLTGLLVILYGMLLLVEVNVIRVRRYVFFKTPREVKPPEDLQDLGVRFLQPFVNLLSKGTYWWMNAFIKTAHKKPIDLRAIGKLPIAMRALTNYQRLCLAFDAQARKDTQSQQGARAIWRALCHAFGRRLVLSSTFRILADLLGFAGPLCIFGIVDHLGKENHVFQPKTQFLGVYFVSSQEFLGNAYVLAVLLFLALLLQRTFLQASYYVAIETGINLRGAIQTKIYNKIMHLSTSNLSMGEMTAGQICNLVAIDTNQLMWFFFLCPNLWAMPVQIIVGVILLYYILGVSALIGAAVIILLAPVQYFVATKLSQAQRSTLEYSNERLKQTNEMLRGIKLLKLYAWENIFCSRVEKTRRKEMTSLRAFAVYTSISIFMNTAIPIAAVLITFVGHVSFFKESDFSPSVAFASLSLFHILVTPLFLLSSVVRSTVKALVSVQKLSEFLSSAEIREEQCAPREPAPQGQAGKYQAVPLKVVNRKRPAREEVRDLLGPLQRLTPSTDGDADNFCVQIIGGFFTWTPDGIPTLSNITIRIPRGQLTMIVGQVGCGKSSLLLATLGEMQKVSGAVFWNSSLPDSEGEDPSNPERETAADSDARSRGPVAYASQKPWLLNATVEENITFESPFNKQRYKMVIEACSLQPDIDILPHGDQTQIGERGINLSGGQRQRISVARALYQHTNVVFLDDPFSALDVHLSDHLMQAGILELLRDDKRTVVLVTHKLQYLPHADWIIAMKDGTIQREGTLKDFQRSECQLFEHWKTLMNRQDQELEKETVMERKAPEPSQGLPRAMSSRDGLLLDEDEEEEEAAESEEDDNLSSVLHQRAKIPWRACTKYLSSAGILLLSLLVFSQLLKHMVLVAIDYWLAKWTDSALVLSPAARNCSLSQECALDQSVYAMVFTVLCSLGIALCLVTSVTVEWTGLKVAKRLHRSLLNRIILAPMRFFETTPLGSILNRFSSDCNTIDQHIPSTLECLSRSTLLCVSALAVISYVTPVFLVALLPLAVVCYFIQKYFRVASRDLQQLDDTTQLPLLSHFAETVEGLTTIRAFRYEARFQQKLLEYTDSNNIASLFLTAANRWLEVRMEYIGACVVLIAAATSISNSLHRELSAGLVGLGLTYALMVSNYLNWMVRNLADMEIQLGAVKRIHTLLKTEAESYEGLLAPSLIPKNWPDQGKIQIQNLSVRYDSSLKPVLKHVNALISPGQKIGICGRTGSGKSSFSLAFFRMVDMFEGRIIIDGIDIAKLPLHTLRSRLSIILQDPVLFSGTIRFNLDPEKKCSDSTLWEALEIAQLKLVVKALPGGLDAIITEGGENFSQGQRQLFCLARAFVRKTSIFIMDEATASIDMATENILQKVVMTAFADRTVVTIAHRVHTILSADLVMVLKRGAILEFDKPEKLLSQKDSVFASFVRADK
Chain of Kir6.2/SUR1 channel (Q61743 whole entry partner): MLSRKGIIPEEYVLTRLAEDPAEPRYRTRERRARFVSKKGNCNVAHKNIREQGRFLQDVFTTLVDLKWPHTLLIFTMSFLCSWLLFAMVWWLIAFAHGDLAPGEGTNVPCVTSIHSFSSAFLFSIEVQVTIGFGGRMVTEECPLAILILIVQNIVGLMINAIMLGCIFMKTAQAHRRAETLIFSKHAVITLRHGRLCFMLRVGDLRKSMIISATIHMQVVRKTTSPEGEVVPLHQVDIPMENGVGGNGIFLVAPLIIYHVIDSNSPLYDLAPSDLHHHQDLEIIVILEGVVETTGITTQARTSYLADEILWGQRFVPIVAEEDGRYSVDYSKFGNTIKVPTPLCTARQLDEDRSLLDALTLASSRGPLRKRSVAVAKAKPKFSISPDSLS

`COc1ccc2c(c1)S(=O)(=O)N=C(NC(C)C)N2` [3-isopropylamino-7-methoxy-4H-1,2,4,-benzothiadiazine 1,1-dioxide]: the channel opener selectivity entry at Kir6.2/SUR1 channel is listed as “selective Kir6.2/SUR1 channel opener”.

Consider `CC(C)N=C1Nc2cc(Cl)c(Cl)cc2S(=O)(=O)N1` [BPDZ 154], for which the “KATP channel activator activity” value on KATP channel is given as “effective KATP channel activator”.
